Calls of active or inactive are those of the source. No cut-off for these calls is given here.
Key:
[1] = system: HepG2; assay: Antiproliferative activity against human HepG2 cells assessed as reduction in cell optical density incubated for 48 hrs by MTT assay; assay type: functional, cell-based; conditions: HepG2, 48 h
[2] = system: C-33-A; assay: Antiproliferative activity against human C-33-A cells assessed as inhibition of cell viability incubated for 24 hrs by CCK8 assay; assay type: functional, cell-based
[3] = system: Ca-Ski; assay: Antiproliferative activity against human Ca Ski cells assessed as inhibition of cell growth at 0.4 to 1.6 uM by CCK8 assay; assay type: functional, cell-based; conditions: dose 0.4-1.6 µM, time 6.0 day
[4] = system: Ca-Ski; assay: Induction of morphological changes in human Ca Ski cells assessed as increase in appearance of round cells at 0.5 to 2 uM by microphotographic analysis; assay type: functional, cell-based; conditions: dose 0.5-2 µM
[5] = system: C-33-A; assay: Induction of morphological changes in human C-33-A cells assessed as increase in inflated cell appearance at 0.3 to 1.2 uM by microphotographic analysis; assay type: functional, cell-based; conditions: dose 0.3-1.2 µM
[6] = system: C-33-A; assay: Induction of morphological changes in human C-33-A cells assessed as decrease in cell adherence to culture dish at 0.3 to 1.2 uM by microphotographic analysis; assay type: functional, cell-based; conditions: dose 0.3-1.2 µM
[7] = system: SiHa; assay: Induction of morphological changes in human SiHa cells assessed as decrease in cell adherence to culture dish at 0.5 to 2 uM by microphotographic analysis; assay type: functional, cell-based; conditions: dose 0.5-2 µM
[8] = system: HeLa; assay: Induction of apoptosis in human HeLa cells assessed as viable cells at 0.6 uM incubated for 24 hrs by Annexin V-FITC/PI staining based flow cytometric analysis (reference value: 96.2 %); assay type: functional; conditions: read-out: Activity
[9] = system: HeLa; assay: Induction of apoptosis in human HeLa cells assessed as viable cells at 1.2 uM incubated for 24 hrs by Annexin V-FITC/PI staining based flow cytometric analysis (reference value: 96.2 %); assay type: functional; conditions: read-out: Activity
[10] = system: HeLa; assay: Induction of apoptosis in human HeLa cells assessed as late apoptotic cells at 1.2 uM incubated for 24 hrs by Annexin V-FITC/PI staining based flow cytometric analysis (reference value: 0.94 %); assay type: functional
[11] = system: HeLa; assay: Induction of apoptosis in human HeLa cells assessed as viable cells at 0.6 uM preincubated with Z-VAD-FMK for 1 hrs followed by compound addition and measured after 24 hrs by Annexin V-FITC/PI staining based flow cytometric analysis (reference value: 95.8 %); assay type: functional; conditions: read-out: Activity
[12] = system: Ca-Ski; assay: Induction of apoptosis in human Ca Ski cells assessed as late apoptotic cells at 0.5 uM incubated for 24 hrs by Annexin V-FITC/PI staining based flow cytometric analysis (reference value: 5.33 %); assay type: functional
[13] = system: Ca-Ski; assay: Induction of apoptosis in human Ca Ski cells assessed as necrotic cells at 1 uM incubated for 24 hrs by Annexin V-FITC/PI staining based flow cytometric analysis (reference value: 3.15 %); assay type: functional
[14] = system: Ca-Ski; assay: Induction of apoptosis in human Ca Ski cells assessed as viable cells at 0.5 uM preincubated with Z-VAD-FMK for 1 hrs followed by compound addition and measured after 24 hrs by Annexin V-FITC/PI staining based flow cytometric analysis (reference value: 90.2 %); assay type: functional; conditions: read-out: Activity
[15] = system: Ca-Ski; assay: Induction of apoptosis in human Ca Ski cells assessed as late apoptotic cells at 1 uM preincubated with Z-VAD-FMK for 1 hrs followed by compound addition and measured after 24 hrs by Annexin V-FITC/PI staining based flow cytometric analysis (reference value: 5.30 %); assay type: functional
[16] = system: HeLa; assay: Effect on caspase 3 expression level in human HeLa cells at 0.3 to 1.2 uM incubated for 24 hrs by Western blot analysis; assay type: functional, cell-based; conditions: dose 0.3-1.2 µM
[17] = system: Ca-Ski; assay: Antiproliferative activity against Bax deficient human Ca Ski cells assessed as inhibition of cell viability incubated for 24 hrs by CCK8 assay; assay type: functional, cell-based
[18] = system: HeLa; assay: Effect on PARP expression level in p53 deficient human HeLa cells at 0.6 to 1.2 uM incubated for 24 hrs by Western blot analysis; assay type: functional, cell-based; conditions: dose 0.6-1.2 µM
[19] = system: HeLa; assay: Effect on cleaved PARP expression level in Bax deficient human HeLa cells at 0.6 to 1.2 uM incubated for 24 hrs by Western blot analysis; assay type: functional, cell-based; conditions: dose 0.6-1.2 µM
[20] = system: Ca-Ski; assay: Effect on caspase 3 expression level in p53 deficient human Ca Ski cells at 0.5 to 1 uM incubated for 24 hrs by Western blot analysis; assay type: functional, cell-based; conditions: dose 0.5-1 µM
[21] = system: Ca-Ski; assay: Effect on PARP expression level in Bax deficient human Ca Ski cells at 0.5 to 1 uM incubated for 24 hrs by Western blot analysis; assay type: functional, cell-based; conditions: dose 0.5-1 µM
[22] = system: Ca-Ski; assay: Effect on caspase 3 expression level in Bax deficient human Ca Ski cells at 0.5 to 1 uM incubated for 24 hrs by Western blot analysis; assay type: functional, cell-based; conditions: dose 0.5-1 µM
[23] = system: Ca-Ski; assay: Induction of ferroptosis in human Ca Ski cells assessed as increase in lipid ROS level by measuring rightward shift in fluorescence intensity at 0.5 uM measured after 24 hrs by C11-BODIPY-581/591 staining based flow cytometric analysis; assay type: functional, cell-based
[24] = system: HeLa; assay: Induction of autophagy in human HeLa cells transfected with mRFP-GFP-LC3 plasmid assessed as stable RFP fluorescence at 0.4 to 0.8 uM incubated for 24 hrs by DAPI staining based fluorescence confocal microscopic analysis; assay type: functional, cell-based; conditions: dose 0.4-0.8 µM
[25] = system: Ca-Ski; assay: Induction of autophagolysosome formation in human Ca Ski cells transfected with mRFP-GFP-LC3 plasmid assessed as increase in ratio of mRFP to GFP puncta at 0.3 to 0.6 uM incubated for 24 hrs; assay type: functional, cell-based; conditions: dose 0.3-0.6 µM
[26] = system: HeLa; assay: Effect on ferroptosis pathway related gene expression in human HeLa cells at 1.2 uM incubated for 24 hrs by GSVA enrichment analysis; assay type: functional, cell-based
[27] = system: HeLa; assay: Upregulation of autophagy pathway related gene expression in human HeLa cells at 1.2 uM incubated for 24 hrs by heat-map analysis; assay type: functional, cell-based
[28] = system: HeLa; assay: Induction of autophagy pathway in human HeLa cells at 1.2 uM incubated for 24 hrs by GSEA analysis; assay type: functional, cell-based
[29] = system: HeLa; assay: Induction of autophagy in human HeLa cells assessed as increase in ATG7 protein level at 0.6 to 1.2 uM incubated for 24 hrs by Western blot analysis; assay type: functional, cell-based; conditions: dose 0.6-1.2 µM
[30] = system: HeLa; assay: Antiproliferative activity against ATG5 deficient human HeLa cells assessed as inhibition of cell viability incubated for 24 hrs by CCK8 assay; assay type: functional, cell-based
[31] = system: HeLa; assay: Inhibition of colony formation in ATG5 deficient human HeLa cells at 0.15 to 0.6 uM incubated for 24 hrs by crystal violet staining based analysis; assay type: functional, cell-based; conditions: dose 0.15-0.6 µM
[32] = system: HeLa; assay: Inhibition of colony formation in ATG7 deficient human HeLa cells at 0.15 to 0.6 uM incubated for 24 hrs by crystal violet staining based analysis; assay type: functional, cell-based; conditions: dose 0.15-0.6 µM
[33] = system: Ca-Ski; assay: Inhibition of colony formation in ATG5 deficient human Ca Ski cells at 0.1 to 0.4 uM incubated for 24 hrs by crystal violet staining based analysis; assay type: functional, cell-based; conditions: dose 0.1-0.4 µM
[34] = system: HeLa; assay: Antitumor activity against human HeLa cells xenografted in female BALB/c mouse assessed as reduction in tumor weight at 8 mg/kg administered every four days and measured after 26 days relative to control; assay type: functional; parameters: scale not given: the % may be the effect or the level left; conditions: time 26 day
[35] = system: Ca-Ski; assay: Induction of autophagy in human Ca Ski cells transfected with mRFP-GFP-LC3 plasmid assessed as stable RFP fluorescence at 25 uM incubated for 24 hrs by DAPI staining based fluorescence confocal microscopic analysis; assay type: functional, cell-based

**Q.** Which results are given for `COc1cccc(Nc2ccnc3cc(OCCCCCOc4ccc5c(Nc6cccc(OC)c6)ccnc5c4)ccc23)c1`?
**A.** IC50 [1]: 31500 nM; Activity [2]: Dose-dependent-effect; IC50 [2]: 807 nM; Activity [3]: Time-dependent-effect; Activity [4]: Active; Activity [5]: Active; Activity [6]: Active; Activity [7]: Active; viability at 0.6 µM [8]: 94.3%; viability at 1.2 µM [9]: 93.2%; Activity [10]: 4.11%; viability at 0.6 µM [11]: 94.9%; Activity [12]: 5.88%; Activity [13]: 2.98%; viability at 0.5 µM [14]: 73.7%; Activity [15]: 6.59%; Activity [16]: inactive; IC50 [17]: 993 nM; Activity [18]: inactive; Activity [19]: inactive; Activity [20]: inactive; Activity [21]: inactive; Activity [22]: inactive; Activity [23]: inactive; Activity [24]: Active; Activity [25]: Active; Activity [26]: Minimal_effect; Activity [27]: Active; Activity [28]: Active; Activity [29]: Active; IC50 [30]: 1630 nM; inhibition [31]: Minimal_effect; inhibition [32]: Minimal_effect; inhibition [33]: Minimal_effect; Activity [34]: 81.76%; Activity [35]: Active
